The record followed here is ChEMBL document CHEMBL5113486, “Hit-to-lead optimization of novel phenyl imidazole carboxamides that are active against Leishmania donovani” (Eur J Med Chem, 2022).

Data set [1] is described as follows: Cytotoxicity against human HepG2 cells assessed as cell growth inhibition at 100 uM. The format is toxicity, cell-based. To be noted: read-out: Activity.
Data set [2] is described as follows: Cytotoxicity against human THP-1 cells assessed as cell growth inhibition. The format is toxicity, cell-based.
The nature of data set [3]: Selectivity index, ratio of CC50 for cytotoxicity against human THP-1 cells to IC50 for antileishmanial activity against Leishmania donovani infected in human THP-1 cells. To be noted: read-out: Ratio CC50/IC50. The format is toxicity, cell-based.
For data set [4], the system named is Leishmania donovani. The data set can be described thus: Antileishmanial activity against Leishmania donovani infected in human THP-1 cells assessed as growth inhibition by intramacrophage assay. The format is functional, organism-based.
For data set [5], the system named is Leishmania donovani. The data set can be described thus: Antileishmanial activity against Leishmania donovani infected in human THP-1 cells assessed as growth inhibition at 100 uM by intramacrophage assay. The format is functional. More on the design: scale not given: the % may be the effect or the level left.

On to `COc1ccc(-c2cnc(NC(=O)C3CCCC3)n2C)cc1`, for which the inhibition at 100 µM in data set [1] is < 50%. The cytotoxic concentration (CC50) (in general, the concentration at which the toxic effect on the cells reaches its halfway point) in data set [2] was > 100 µM. Moreover, in data set [3], the selectivity ratio is > 1.2. In addition, in data set [4], the IC50 (in general, the midpoint of a concentration-inhibition curve) was determined as 83 µM.
With `COc1ccc(-c2cnc(NC(=O)c3cccc(F)c3)n2C)cc1`, the inhibition at 100 µM in data set [1] is < 50%. The CC50 in data set [2] is > 100 µM. Moreover, the Activity in data set [5] was <50%. In data set [4], the 50% inhibitory concentration (IC50) is > 100 µM.
For the compound `COc1ccc(-c2noc(NC(=O)c3ccc(F)cc3)c2C)cc1`, the inhibition at 100 µM in data set [1] was < 50%. Moreover, in data set [2], the CC50 is > 100 µM. For the same compound, the Activity in data set [5] is given as <50%. In addition, the selectivity ratio in data set [3] is > 1. Also, in data set [4], the 50% inhibitory concentration (IC50) is > 100 µM.
Regarding `COc1ccc(-c2cnc(NC(=O)c3cnco3)n2C)cc1`, the inhibition at 100 µM in data set [1] is < 50%. The half-maximal cytotoxic concentration (CC50) in data set [2] was > 100 µM. The Activity in data set [5] was <50%. The selectivity ratio in data set [3] is > 1. Moreover, in data set [4], the IC50 is > 100 µM.
For `COc1ccc(-c2cnc(NC(=O)c3ccc(F)cc3)n2C2CCCC2)cc1`, the inhibition at 100 µM in data set [1] was < 50%. The half-maximal cytotoxic concentration (CC50) in data set [2] is > 100 µM. Also, the selectivity ratio in data set [3] is > 1. The IC50 in data set [4] was 35 µM.
`COc1ccc(-c2cnc(NC(=O)c3ccco3)n2C)cc1`: the inhibition at 100 µM in data set [1] is < 50%. In addition, the half-maximal cytotoxic concentration (CC50) in data set [2] is > 100 µM. Also, the selectivity ratio in data set [3] is > 4.3. Moreover, the half-inhibitory concentration (IC50) in data set [4] came to 23 µM.
As for `COc1ccc(-c2cnc(NC(=O)c3ccccc3F)n2C)cc1`, the inhibition at 100 µM in data set [1] was < 50%. Moreover, the CC50 in data set [2] is > 100 µM. Also, in data set [5], the Activity is <50%. Besides, in data set [3], the selectivity ratio was > 1. Further, the concentration for half-maximal inhibition (IC50) in data set [4] was > 100 µM.
For the compound `COc1ccc2c(c1)nc(NC(=O)c1ccc(F)cc1)n2C`, the inhibition at 100 µM in data set [1] was < 50%. In addition, the CC50 in data set [2] is > 100 µM. Further, the selectivity ratio in data set [3] is > 2.6. Further, in data set [4], the concentration for half-maximal inhibition (IC50) was 38 µM.
Turning to `COc1ccc(-c2cnc(NC(=O)c3cccc(C#N)c3)n2C)cc1`, the inhibition at 100 µM in data set [1] is < 50%. Also, the CC50 in data set [2] was > 100 µM. Besides, the Activity in data set [5] is <50%. Besides, the selectivity ratio in data set [3] was > 1. In data set [4], the IC50 is > 100 µM.
Take `COc1ccc(-c2cnc(NC(=O)c3ccccc3C)n2C)cc1`: in data set [1], the inhibition at 100 µM was < 50%. The CC50 in data set [2] was > 100 µM. In data set [3], the selectivity ratio was > 1.5. The IC50 in data set [4] was determined as 65 µM.
The matching figures for `COc1ccc(-c2cnc(NC(=O)c3ccccc3C#N)n2C)cc1`: < 50%, > 100 µM, > 7.1 and 14 µM.
With `COc1ccc(-c2cnc(NC(=O)c3ccc(C#N)cc3)n2C)cc1`, the inhibition at 100 µM in data set [1] is < 50%. Besides, the CC50 in data set [2] is > 100 µM. For the same compound, the Activity in data set [5] was <50%. Moreover, the selectivity ratio in data set [3] is > 1. The half-inhibitory concentration (IC50) in data set [4] was > 100 µM.
In the case of `COc1ccc(-c2cnc(NC(C)=O)n2C)cc1`, the inhibition at 100 µM in data set [1] is < 50%. Further, the CC50 in data set [2] is > 100 µM. Further, the Activity in data set [5] was <50%. Besides, the selectivity ratio in data set [3] was > 1. Further, the 50% inhibitory concentration (IC50) in data set [4] is > 100 µM.
Regarding `Cn1c(-c2ccccc2)cnc1NC(=O)C1CCCCC1`, the inhibition at 100 µM in data set [1] was < 50%. Also, the CC50 in data set [2] was > 100 µM. Moreover, the selectivity ratio in data set [3] was > 2.2. In addition, the IC50 in data set [4] worked out at 46 µM.
`COc1ccc(-c2cnc(NC(=O)Cc3ccccc3)n2C)cc1`: the inhibition at 100 µM in data set [1] was < 50%. For the same compound, in data set [2], the CC50 was > 100 µM. The selectivity ratio in data set [3] is > 4. For the same compound, the half-inhibitory concentration (IC50) in data set [4] turned out to be 25 µM.
For `COc1cccc(-c2cnc(NC(=O)c3ncc[nH]3)n2C)c1`, the inhibition at 100 µM in data set [1] is < 50%. The cytotoxic concentration (CC50) in data set [2] was > 100 µM. In data set [3], the selectivity ratio was > 12. For the same compound, the IC50 in data set [4] was 8.1 µM.
`COc1ccc(-c2cnc(NC(=O)c3ccn[nH]3)n2C)cc1`: the inhibition at 100 µM in data set [1] is < 50%. For the same compound, the 50% cytotoxic concentration (CC50) in data set [2] was > 100 µM. Also, the Activity in data set [5] is reported as <50%. In data set [3], the selectivity ratio is > 1. Besides, the IC50 in data set [4] is > 100 µM.
For `COc1ccc(-c2cnc(NC(=O)c3ccc(Br)cc3)n2C)cc1`, in data set [1], the inhibition at 100 µM is < 50%. The CC50 in data set [2] is > 100 µM. The selectivity ratio in data set [3] is > 1. In addition, the 50% inhibitory concentration (IC50) in data set [4] is > 100 µM.
As to `Cc1ccccc1C(=O)Nc1ncc(-c2ccccc2)n1C`, in data set [1], the inhibition at 100 µM is < 50%. For the same compound, in data set [2], the 50% cytotoxic concentration (CC50) is > 100 µM. The selectivity ratio in data set [3] was > 1.8. In addition, the half-maximal inhibitory concentration (IC50) in data set [4] is 57 µM.
The corresponding values for `CCn1c(-c2ccc(OC)cc2)cnc1NC(=O)c1ccc(F)cc1` are < 50%, > 100 µM, > 2.6 and > 100 µM.
The matching figures for `COc1ccc(-c2cnc(NC(=O)c3ccccc3O)n2C)cc1`: < 50%, > 100 µM, > 1 and > 100 µM.
For the compound `COc1ccc2nc(NC(=O)c3ccc(F)cc3)n(C)c2c1`, the inhibition at 100 µM in data set [1] is < 50%. Also, the half-maximal cytotoxic concentration (CC50) in data set [2] was > 100 µM. Besides, the selectivity ratio in data set [3] is > 2.3. In addition, the half-inhibitory concentration (IC50) in data set [4] was 44 µM.
On to `COc1ccc(-c2cnc(NC(=O)c3cccc(Br)c3)n2C)cc1`, for which the inhibition at 100 µM in data set [1] was < 50%. Further, the CC50 in data set [2] was > 100 µM. Besides, the selectivity ratio in data set [3] was > 1. Besides, the IC50 in data set [4] is > 100 µM.
Turning to `COc1ccc(-c2cnc(NC(=O)c3ccncc3)n2C)cc1`, the inhibition at 100 µM in data set [1] was < 50%. Besides, in data set [2], the CC50 was > 100 µM. For the same compound, in data set [3], the selectivity ratio is > 2.3. Further, the IC50 in data set [4] was 44 µM.
The corresponding values for `Cc1cccc(-c2cnc(NC(=O)c3ccc(F)cc3)n2C)c1` are < 50%, > 100 µM, > 1.3 and 79 µM.
Consider `COc1ccc(-c2cnc(NC(=O)c3ccno3)n2C)cc1`, for which, in data set [1], the inhibition at 100 µM is < 50%. For the same compound, the CC50 in data set [2] is > 100 µM. Also, the selectivity ratio in data set [3] was > 1. Besides, the IC50 in data set [4] is > 100 µM.
In the case of `COc1ccc(-c2cnc(NC(=O)c3ccc(F)cc3)n2Cc2ccccc2)cc1`, in data set [1], the inhibition at 100 µM was < 50%. Further, in data set [2], the CC50 was > 100 µM. The selectivity ratio in data set [3] came out at 1.4. In data set [4], the half-inhibitory concentration (IC50) was > 100 µM.
Consider `COc1ccc(-c2cnc(NC(=O)c3cccnc3)n2C)cc1`, for which, in data set [1], the inhibition at 100 µM is < 50%. In data set [2], the CC50 is > 100 µM. The selectivity ratio in data set [3] is > 1. In addition, the concentration for half-maximal inhibition (IC50) in data set [4] was > 100 µM.
In the case of `Cn1c(-c2ccc(C#N)cc2)cnc1NC(=O)c1ccc(F)cc1`, the 50% cytotoxic concentration (CC50) in data set [2] was > 50 µM. For the same compound, the selectivity ratio in data set [3] is > 1. For the same compound, the concentration for half-maximal inhibition (IC50) in data set [4] was > 50 µM.
`COc1ccc(-c2cnc(NC(=O)c3ccc(F)cc3)[nH]2)cc1`: in data set [1], the inhibition at 100 µM was < 50%. Also, in data set [2], the 50% cytotoxic concentration (CC50) is > 100 µM. In addition, the selectivity ratio in data set [3] was > 8.3. The IC50 in data set [4] was determined as 38 µM.
For the compound `COc1ccc(-c2cnc(NC(=O)c3cccc(OC)c3)n2C)cc1`, the half-maximal cytotoxic concentration (CC50) in data set [2] is > 100 µM. Also, the selectivity ratio in data set [3] is > 1. Moreover, the IC50 in data set [4] is > 100 µM.
On to `CCC(=O)Nc1ncc(-c2ccc(OC)cc2)n1C`, for which the CC50 in data set [2] was > 100 µM. In data set [3], the selectivity ratio is > 1. Also, in data set [4], the IC50 is > 100 µM.
